Legend:
[1] = rats, cited from earlier work
[2] = rat plasma; cited from earlier work
mOat3 = biological target: T1, mOat3 (Mus musculus, UniProt O88909); experiment: Inhibition of mOat3-mediated [3H]ES uptake in CHO-mOat3 cells (cell accumulation assay); type: cell-based, murine; conditions: for inhibition at 1000 µM: 1 mM (1000 μM) inhibitor, 10 min, CHO-mOat3 cells, read-out: inhibition of mOat3-mediated ES uptake; for inhibition at 1000 µM / Ki: 1 μM [3H]ES; for Ki: 1 min, CHO-mOat3, mean ± S.E.M. (n = 3), from IC50 via Cheng-Prusoff, read-out: Estimated K i for mOat3-mediated transport; for mode of inhibition of mOat3-mediated transport: mixed inhibition model, ES substrate
T1 construct: expressed in transfected cells; host or cells: CHO (Chinese hamster ovary), stably transfected (CHO-mOat3)
T1 sequence (O88909 1-537): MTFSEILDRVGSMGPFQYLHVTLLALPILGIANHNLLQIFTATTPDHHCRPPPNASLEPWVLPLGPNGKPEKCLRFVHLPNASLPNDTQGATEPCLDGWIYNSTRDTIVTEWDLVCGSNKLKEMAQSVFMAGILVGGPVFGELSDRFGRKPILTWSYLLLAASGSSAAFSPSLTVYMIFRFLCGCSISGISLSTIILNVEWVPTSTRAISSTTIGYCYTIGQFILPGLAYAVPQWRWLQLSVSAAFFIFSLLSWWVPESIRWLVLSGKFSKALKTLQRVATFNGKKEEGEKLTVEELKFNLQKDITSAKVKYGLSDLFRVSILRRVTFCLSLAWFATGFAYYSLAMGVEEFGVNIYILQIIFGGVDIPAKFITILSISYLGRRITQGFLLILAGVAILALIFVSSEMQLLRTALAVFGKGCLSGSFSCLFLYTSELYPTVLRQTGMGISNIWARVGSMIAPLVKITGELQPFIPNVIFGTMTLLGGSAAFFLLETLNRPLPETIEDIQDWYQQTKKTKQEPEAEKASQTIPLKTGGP
Description: Derivation of the stably transfected Chinese hamster ovary (CHO) cell lines expressing mOat1 (CHO-mOat1), mOat3 (CHO-mOat3), and the empty vector (FRT) transfected control cell line (CHO-FRT) was described previously.
Cell transport assay procedures were adapted from those previously published. In brief, 2 × 10^5 cells/well were seeded in 24-well tissue culture plates and grown in the absence of antibiotics for 48 hr. On the day of the experiment, cells were equilibrated with transport buffer for 10 min (500 μL of Hanks' balanced salt solution containing 10 mM HEPES, pH 7.4). […] After incubation, cells were immediately rinsed three times with ice-cold transport buffer, lysed, and analyzed via liquid scintillation counting. Uptake values were normalized to corresponding total protein content in cell lysates as determined by the Bradford method. Substrate accumulation is reported as picomoles of substrate per milligram protein. […] Kinetic calculations were performed using GraphPad Prism Software version 5.0 (GraphPad Software Inc., San Diego, CA, USA). Michaelis constant (K m) values were calculated by nonlinear regression using the Michaelis-Menten model. Mode of inhibition was identified by using mixed model inhibition analysis as follows: (1) Vmax Apparent =Vmax/(1+[I]/(α×Ki)),Km Apparent=Km1+[I]/Ki/(1+[I]/(α×Ki)),Y=Vmax Apparent×x/Km Apparent+x, where V max, K i, and I represent the maximum transport velocity without inhibitor, the inhibition constant generated from the data set under analysis, and the concentration of inhibitor, respectively. In this study, three curves were constructed (no inhibitor, plus two selected inhibitor concentrations) with uptake of substrate plotted as a function of its concentration for each condition. […] The parameter, α, can then be used to determine the mode of inhibition. When α is very large (α > 1), it indicates competitive inhibition. Otherwise, it indicates noncompetitive inhibition (α = 1) or uncompetitive inhibition (0 < α < 1). To estimate K i values, IC50 values were calculated using nonlinear regression and inserted into the Cheng-Prusoff equation: K i = IC50/(1 + [Substrate]/K m). Results were confirmed by repeating all experiments at least three times with triplicate wells for each data point in every experiment.
Figure 2 Inhibition profile of mOat1 and mOat3. […] (5 μM) by LSA, PCA, RMA, SAA, SAB, TSL, and probenecid (1000 μM) was measured in the CHO-mOat1 cells (10 min). […] (b) Inhibition of mOat3-mediated uptake of [^3H]ES (1 μM) by LSA, PCA, RMA, SAA, SAB, TSL, and probenecid (1000 μM) was measured in the CHO-mOat3 cells (10 min). […] Values are mean ± S.D. of triplicate values. ***denotes P < 0.001 as determined by one-way ANOVA followed by Dunnett's t-test.
Figure 5 K i determination for LSA, RMA, and SAA in the CHO-mOat3 cell line. One minute uptake of [^3H]ES (1 μM) in CHO-mOat3 cells was measured in the presence of increasing concentrations (10^−7 to 4 × 10^−4 M) of LSA, RMA, and SAA. Data were corrected for nonspecific background measured in the CHO-FRT cells prior to kinetic analysis. K i values were determined with non-linear regression and the “one-site competition” model using GraphPad Prism software. Graphs shown are from representative experiments with values plotted as mean ± S.D. (n = 3).

[3] = design: method as in PMID 15866491; conditions: healthy humans, i.v. dosing of a Danshen product; cited from earlier work

Row | Structure (SMILES) | increase of AUC on spiking additional SAA into Danshen preparations [1] | reduction of clearance on spiking additional SAA into Danshen preparations [1] | unbound renal clearance relative to glomerular filtration rate ([1]; fold greater than the glomerular filtration rate) | plasma protein binding [2] | inhibition at 1000 µM (mOat3) | Cmax [3] | Ki (mOat3) | mode of inhibition of mOat3-mediated transport (mOat3) | Estimated α value from mixed inhibition model analysis, mOat3 (mOat3; 1 μM ES for 1 min, mean, α > 1 indicates competitive inhibition)
1 | O=C(O)C(O)Cc1ccc(O)c(O)c1 (centres unmarked) [TSL, tanshinol] | 26.7% | 32.9% | ~ 5 X | 25% | ~55% |  |  |  | 
2 | O=C(/C=C/c1ccc(O)c(O)c1)O[C@H](Cc1ccc(O)c(O)c1)C(=O)O [RMA, rosmarinic acid] |  |  |  |  | > 91% | 6.7 µM | 4.3 ± 0.2 µM | competitive | 
3 | O=C(/C=C/c1ccc(O)c(O)c1/C=C/c1ccc(O)c(O)c1)O[C@H](Cc1ccc(O)c(O)c1)C(=O)O [SAA, salvianolic acid A] |  |  |  |  | > 91% |  | 21.3 ± 7.7 µM | competitive | 3.4 × 10^14
4 | O=C(/C=C/c1ccc(O)c2c1[C@H](C(=O)O)[C@@H](c1ccc(O)c(O)c1)O2)O[C@H](Cc1ccc(O)c(O)c1)C(=O)O [LSA, lithospermic acid] |  |  |  |  | > 91% | 2.1 µM | 31.1 ± 7 µM | competitive | 
